From ChEMBL document CHEMBL1151391, “New Dihydrochalcones and Flavanones From Uvaria Angolensis” (1982)

Assays:
Format in all cases: functional
Staphylococcus aureus = test: Antimicrobial activity against Staphylococcus aureus
Bacillus subtilis = test: Antimicrobial activity against Bacillus subtilis
[1] = test system: Mycolicibacterium smegmatis; test: Antimicrobial activity against Mycobacterium smegmatis

COc1c(C)c(O)c(C)c(O)c1C(=O)CCc1ccccc1 [ANGOLETIN]
Activity (Staphylococcus aureus): 12.5 µg/mL | Activity (Bacillus subtilis): 0.8 µg/mL | Activity [1]: 6.3 µg/mL

COc1c(C)c(O)c(Cc2ccccc2O)c(O)c1C(=O)CCc1ccccc1 [ANGUVETIN]
Activity (Staphylococcus aureus): 1.5 µg/mL | Activity (Bacillus subtilis): 0.2 µg/mL | Activity [1]: 1.5 µg/mL
